Our source for the IC50 values is patent publication US10526319B2, “Halogenated quinazolin-THF-amines as PDE1 inhibitors” (H. Lundbeck A/S, priority 2014, dated 2020).

Format in all cases: biochemical
Common to all, as to details: 15 nM tritium labelled cAMP, 1 h at room temperature

For one experiment, the target named is PDE1A (Homo sapiens, UniProt P54750). Kind of experiment: PDE1 inhibition assay (SPA, tritium labelled cAMP), PDE1A. The method, then: (§1) PDE1A, PDE1B and PDE1C assays were performed as follows: the assays was performed in 60 μL samples containing a fixed amount of the PDE1 enzym1 (sufficient to convert 20-25% of the cyclic nucleotide substrate), a buffer (50 mM HEPES pH 7.6; 10 mM MgCl2; 0.02% Tween20), 0.1 mg/ml BSA, 15 nM tritium labelled cAMP and varying amounts of inhibitors. Reactions were initiated by addition of the cyclic nucleotide substrate, and reactions were allowed to proceed for 1 h at room temperature before being terminated through mixing with 20 μL (0.2 mg) yttrium silicate SPA beads (PerkinElmer). The beads were allowed to settle for 1 h in the dark before the plates were counted in a Wallac 1450 Microbeta counter. The measured signals were converted to activity relative to an uninhibited control (100%) and IC50 values were calculated using XlFit (model 205, IDBS).

The next experiment deals with PDE1B (Homo sapiens, UniProt Q01064). Description: PDE1 inhibition assay (SPA, tritium labelled cAMP), PDE1B. The method, then: as §1
In a further experiment the target is PDE1C (Homo sapiens, UniProt Q14123). Description: PDE1 inhibition assay (SPA, tritium labelled cAMP), PDE1C. The protocol:
as §1

PDE1B, sequence (Q01064 whole entry): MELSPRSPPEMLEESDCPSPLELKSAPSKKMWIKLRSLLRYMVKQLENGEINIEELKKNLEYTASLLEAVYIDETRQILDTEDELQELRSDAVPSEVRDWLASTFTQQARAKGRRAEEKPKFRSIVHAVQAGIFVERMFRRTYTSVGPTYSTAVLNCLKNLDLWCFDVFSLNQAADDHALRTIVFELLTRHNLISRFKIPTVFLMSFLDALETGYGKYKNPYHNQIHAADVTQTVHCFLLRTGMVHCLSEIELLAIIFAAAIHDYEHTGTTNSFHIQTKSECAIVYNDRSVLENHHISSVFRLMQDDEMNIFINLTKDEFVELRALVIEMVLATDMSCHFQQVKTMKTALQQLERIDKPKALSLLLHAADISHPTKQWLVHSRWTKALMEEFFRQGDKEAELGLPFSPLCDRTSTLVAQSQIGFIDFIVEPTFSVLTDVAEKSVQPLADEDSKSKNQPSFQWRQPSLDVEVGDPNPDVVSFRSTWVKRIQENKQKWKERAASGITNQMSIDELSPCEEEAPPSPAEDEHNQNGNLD
PDE1A, sequence (P54750 whole entry): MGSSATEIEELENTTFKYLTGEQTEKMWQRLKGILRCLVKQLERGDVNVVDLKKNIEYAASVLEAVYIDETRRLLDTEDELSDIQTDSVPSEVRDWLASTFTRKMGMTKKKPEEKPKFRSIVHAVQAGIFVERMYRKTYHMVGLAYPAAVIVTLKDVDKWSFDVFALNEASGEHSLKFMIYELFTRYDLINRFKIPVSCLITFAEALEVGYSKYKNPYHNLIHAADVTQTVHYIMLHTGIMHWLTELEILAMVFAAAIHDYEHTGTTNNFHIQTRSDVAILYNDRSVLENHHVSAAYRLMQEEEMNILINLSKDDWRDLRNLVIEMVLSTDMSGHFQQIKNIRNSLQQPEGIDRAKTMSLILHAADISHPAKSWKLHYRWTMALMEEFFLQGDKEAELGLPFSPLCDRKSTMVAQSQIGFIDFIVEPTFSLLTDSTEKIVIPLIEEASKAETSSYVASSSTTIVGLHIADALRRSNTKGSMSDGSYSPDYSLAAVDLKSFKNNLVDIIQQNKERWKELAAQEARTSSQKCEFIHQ
PDE1C, sequence (Q14123 whole entry): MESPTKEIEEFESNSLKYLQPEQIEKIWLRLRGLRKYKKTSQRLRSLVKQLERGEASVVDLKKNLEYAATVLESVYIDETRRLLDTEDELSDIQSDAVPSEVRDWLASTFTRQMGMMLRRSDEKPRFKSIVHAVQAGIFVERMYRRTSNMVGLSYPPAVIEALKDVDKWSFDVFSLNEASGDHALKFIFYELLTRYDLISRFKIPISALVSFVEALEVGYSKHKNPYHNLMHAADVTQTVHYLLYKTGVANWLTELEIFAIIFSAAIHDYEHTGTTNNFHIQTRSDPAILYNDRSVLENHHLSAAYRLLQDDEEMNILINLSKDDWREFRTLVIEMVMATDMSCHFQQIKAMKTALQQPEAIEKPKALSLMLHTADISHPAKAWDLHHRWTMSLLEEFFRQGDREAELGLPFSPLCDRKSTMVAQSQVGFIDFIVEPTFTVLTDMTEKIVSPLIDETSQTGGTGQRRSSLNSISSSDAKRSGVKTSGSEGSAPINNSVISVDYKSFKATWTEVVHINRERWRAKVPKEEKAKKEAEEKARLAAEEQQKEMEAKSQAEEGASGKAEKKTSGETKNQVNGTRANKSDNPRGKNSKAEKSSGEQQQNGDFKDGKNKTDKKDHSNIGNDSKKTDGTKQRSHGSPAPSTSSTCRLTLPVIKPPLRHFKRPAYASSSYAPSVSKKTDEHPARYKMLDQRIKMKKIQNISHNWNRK

Take `COc1ccc2c(NC3(C)CCOC3)ncnc2c1F` (single isomer, unassigned) [1 Stereoisomer 1]: the IC50 – broadly, the concentration that gives 50% inhibition – was determined as 50 nM against PDE1A, 9.9 nM at PDE1B and 28 nM against PDE1C.
The like results for `COc1ccc2c(NC3(C)CCOC3)ncnc2c1F` (single isomer, unassigned) [1 Stereoisomer 2] were, in that order, 250 nM, 65 nM and 260 nM.
On to `COc1ccc2c(N(C)C3CCOC3)ncnc2c1F` (single isomer, unassigned) [2 Stereoisomer 1], for which the values for the half-maximal inhibitory concentration (IC50) on PDE1A, against PDE1B and at PDE1C were 1100 nM, 300 nM and 1300 nM, respectively.
As for `COc1ccc2c(N(C)C3CCOC3)ncnc2c1F` (single isomer, unassigned) [2 Stereoisomer 2], the values for the IC50 at PDE1A, at PDE1B and against PDE1C were 100 nM, 18 nM and 76 nM, respectively.
Consider `COc1ccc2c(NC3CCOC3C)ncnc2c1F` (single isomer, unassigned) [3 Stereoisomer 1], for which the values for the half-maximal inhibitory concentration (IC50) against PDE1A, against PDE1B and against PDE1C were 1900 nM, 650 nM and 1800 nM, respectively.
The like results for `COc1ccc2c(NC3CCOC3C)ncnc2c1F` (single isomer, unassigned) [3 Stereoisomer 2] were, in that order, 420 nM, 87 nM and 260 nM.
The like results for `COc1ccc2c(NC3CCOC3C)ncnc2c1F` (single isomer, unassigned) [3 Stereoisomer 3] were, in that order, 530 nM, 70 nM and 310 nM.
In the same order, the values of `COc1ccc2c(NC3CCOC3C)ncnc2c1F` (single isomer, unassigned) [3 Stereoisomer 4] are 600 nM, 120 nM and 410 nM.
Regarding `COc1ccc2c(NC3CCOC3)ncnc2c1Cl` (single isomer, unassigned) [4 Stereoisomer 1], the values for the IC50 at PDE1A, on PDE1B and on PDE1C were 790 nM, 310 nM and 200 nM, respectively.
The like results for `COc1ccc2c(NC3CCOC3)ncnc2c1Cl` (single isomer, unassigned) [4 Stereoisomer 2] were, in that order, 190 nM, 45 nM and 33 nM.
In the same order, the values of `COc1ccc2c(NC3CCOC3C)ncnc2c1Cl` (single isomer, unassigned) [5 stereoisomer 1] are 300 nM, 49 nM and 27 nM.
In the same order, the values of `COc1ccc2c(NC3CCOC3C)ncnc2c1Cl` (single isomer, unassigned) [5 stereoisomer 2] are 230 nM, 37 nM and 35 nM.
Consider `COc1ccc2c(NC3CCOC3C)ncnc2c1Cl` (single isomer, unassigned) [5 stereoisomer 3], for which the values for the 50% inhibitory concentration (IC50) at PDE1A, on PDE1B and against PDE1C were 1500 nM, 460 nM and 250 nM, respectively.
In the same order, the values of `COc1ccc2c(NC3CCOC3C)ncnc2c1Cl` (single isomer, unassigned) [5 stereoisomer 4] are 450 nM, 58 nM and 36 nM.
The like results for `COc1ccc2c(N(C)C3CCOC3)ncnc2c1Cl` (single isomer, unassigned) [6 stereoisomer 1] were, in that order, 1800 nM, 330 nM and 140 nM.
Turning to `COc1ccc2c(N(C)C3CCOC3)ncnc2c1Cl` (single isomer, unassigned) [6 stereoisomer 2], the IC50 turned out to be 150 nM against PDE1A, 15 nM on PDE1B and 11 nM against PDE1C.
The like results for `COc1ccc2c(NC3(C)CCOC3)ncnc2c1Cl` (single isomer, unassigned) [7 stereoisomer 1] were, in that order, 200 nM, 23 nM and 11 nM.
For the molecule `COc1ccc2c(NC3(C)CCOC3)ncnc2c1Cl` (single isomer, unassigned) [7 stereoisomer 2], the IC50 was 490 nM against PDE1A, 75 nM against PDE1B and 48 nM at PDE1C.
In the same order, the values of `COc1ccc2c(N3CC[C@@H]4OCCC43)ncnc2c1F` (single isomer, unassigned) [8 Stereoisomer 1] are 72 nM, 21 nM and 60 nM.
The like results for `COc1ccc2c(N3CC[C@@H]4OCCC43)ncnc2c1F` (single isomer, unassigned) [8 Stereoisomer 2] were, in that order, 4030 nM, 2200 nM and 2500 nM.
The like results for `COc1ccc2c(N3CC[C@@H]4OCCC43)ncnc2c1Cl` (single isomer, unassigned) [9 Stereoisomer 1] were, in that order, 156 nM, 40 nM and 23 nM.
Regarding `COc1ccc2c(N3CC[C@@H]4OCCC43)ncnc2c1Cl` (single isomer, unassigned) [9 Stereoisomer 2], the half-inhibitory concentration (IC50) against PDE1A stood at 2260 nM; at PDE1B it was 1200 nM; on PDE1C, 550 nM.
In the same order, the values of `COc1ccc2c(N3CC[C@@H]4OCCC43)ncnc2c1Br` (single isomer, unassigned) [10 Stereoisomer 1] are 147 nM, 49 nM and 11 nM.
At PDE1C, `COc1ccc2c(N3CC[C@@H]4OCCC43)ncnc2c1Br` (single isomer, unassigned) [10 Stereoisomer 2] yielded a half-maximal inhibitory concentration (IC50) of 210 nM.
Regarding `COc1ccc2c(N(C)C3(C)CCOC3)ncnc2c1Cl` (single isomer, unassigned) [11 Stereoisomer 1], the IC50 at PDE1A amounted to 292 nM; at PDE1B, 65 nM; against PDE1C, 33 nM.
The like results for `COc1ccc2c(N(C)C3(C)CCOC3)ncnc2c1Cl` (single isomer, unassigned) [11 Stereoisomer 2] were, in that order, 152 nM, 31 nM and 15 nM.
In the same order, the values of `COc1ccc2c(NC3(C)CCOC3C)ncnc2c1Cl` (single isomer, unassigned) [12 Stereoisomer 1] are 853 nM, 200 nM and 130 nM.
Consider `COc1ccc2c(NC3(C)CCOC3C)ncnc2c1Cl` (single isomer, unassigned) [12 Stereoisomer 2], for which the IC50 against PDE1A is 286 nM; on PDE1B, 65 nM; against PDE1C, 38 nM.
In the same order, the values of `COc1ccc2c(NC3(C)CCOC3C)ncnc2c1Cl` (single isomer, unassigned) [12 Stereoisomer 3] are 145 nM, 21 nM and 14 nM.
The like results for `COc1ccc2c(NC3(C)CCOC3C)ncnc2c1Cl` (single isomer, unassigned) [12 Stereoisomer 4] were, in that order, 76 nM, 7 nM and 4 nM.
In the case of `COc1ccc2c(N(C)C3(C)CCOC3C)ncnc2c1Cl` (single isomer, unassigned) [13 Stereoisomer 1], the IC50 at PDE1A stood at 2550 nM; against PDE1B, 410 nM; on PDE1C it was 200 nM.
Regarding `COc1ccc2c(N(C)C3(C)CCOC3C)ncnc2c1Cl` (single isomer, unassigned) [13 Stereoisomer 2], the IC50 came out at 207 nM against PDE1A, 34 nM against PDE1B and 17 nM against PDE1C.
In the same order, the values of `COc1ccc2c(N(C)C3(C)CCOC3C)ncnc2c1Cl` (single isomer, unassigned) [13 Stereoisomer 3] are 85 nM, 7 nM and 5 nM.
The like results for `COc1ccc2c(N(C)C3(C)CCOC3C)ncnc2c1Cl` (single isomer, unassigned) [13 Stereoisomer 4] were, in that order, 300 nM, 26 nM and 13 nM.
The like results for `COc1ccc2c(N(C)C3CCOC3C)ncnc2c1Cl` (single isomer, unassigned) [14 Stereoisomer 1] were, in that order, 2640 nM, 510 nM and 200 nM.
`COc1ccc2c(N(C)C3CCOC3C)ncnc2c1Cl` (single isomer, unassigned) [14 Stereoisomer 2]: the values for the IC50 on PDE1A, at PDE1B and at PDE1C were 170 nM, 18 nM and 10 nM, respectively.
Take `COc1ccc2c(N(C)C3CCOC3C)ncnc2c1Cl` (single isomer, unassigned) [14 Stereoisomer 3]: the IC50 was determined as 1530 nM against PDE1A, 490 nM against PDE1B and 200 nM against PDE1C.
Consider `COc1ccc2c(N(C)C3CCOC3C)ncnc2c1Cl` (single isomer, unassigned) [14 Stereoisomer 4], for which the figures for the IC50 against PDE1A, on PDE1B and against PDE1C were 285 nM, 30 nM and 14 nM, respectively.
In the same order, the values of `COc1ccc2c(N(C)C3(C)CCOC3)ncnc2c1F` (single isomer, unassigned) [15 Stereoisomer 1] are 688 nM, 110 nM and 320 nM.
`COc1ccc2c(N(C)C3(C)CCOC3)ncnc2c1F` (single isomer, unassigned) [15 Stereoisomer 2]: the IC50 at PDE1A is 333 nM; against PDE1B it was 47 nM; against PDE1C, 81 nM.
In the same order, the values of `COc1ccc2c(NC3CCOC3)ncnc2c1F` (single isomer, unassigned) [16 Stereoisomer 1] are 1180 nM, 430 nM and 1200 nM.
